According to patent publication US11390617B2, “Methods of treating non-Hodgkin lymphoma using 2-(2,6-dioxopiperidin-3-yl)-4-((2-fluoro-4-((3-morpholinoazetidin-1-yl)methyl)benzyl)amino)isoindoline-1,3-dione” (Celgene Corporation, priority 2019, dated 2022):

What was measured:
Assay in all cases: NHL cell line viability/apoptosis 384-well flow cytometry assay
Type in all cases: cell-based
[1] = tested on: SU-DHL-6; conditions: SU-DHL-6 (DLBCL), 120 hours
Summary of the method: (§1)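 Read-out is flow cytometry with Annexin V and the impermeant DNA dye DRAQ7 after 120 hours of compound exposure over 0.00015 to 10 μM. Live-cell counts relative to DMSO give IC50 and Emax; percent apoptosis relative to DMSO gives EC50 and Ymax, with AUC for both.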

[2] = tested on: Mino; conditions: Mino (MCL), 120 hours
Summary of the method: as §1

[3] = tested on: DB; conditions: 120 hours
Summary of the method: as §1

[4] = tested on: OCI-LY3; conditions: OCI-LY3 (DLBCL), 120 hours
Summary of the method: as §1

[5] = tested on: Toledo; conditions: Toledo (DLBCL), 120 hours
Summary of the method: as §1

[6] = tested on: U-2904; conditions: U-2904 (DLBCL), 120 hours
Summary of the method: as §1

[7] = tested on: WILL-2; conditions: WILL-2 (DLBCL), 120 hours
Summary of the method: as §1

[8] = tested on: SU-DHL-4; conditions: SU-DHL-4 (DLBCL), 120 hours
Summary of the method: as §1

[9] = tested on: Pfeiffer; conditions: Pfeiffer (DLBCL), 120 hours
Summary of the method: as §1

[10] = Homo sapiens, read-out: IC50 (% Viable Cells)
[11] = read-out: IC50 (% Viable Cells)

**Q.** `O=C1CC[C@H](N2C(=O)c3cccc(NCc4ccc(CN5CC(N6CCOCC6)C5)cc4F)c3C2=O)C(=O)N1` [Compound 1, (S)-2-(2,6-dioxopiperidin-3-yl)-4-((2-fluoro-4-((3-morpholinoazetidin-1-yl)methyl)benzyl)amino)isoindoline-1,3-dione] was tested. Which EC50 ([1]; Homo sapiens) did it give?
**A.** The EC50 was 0.104 µM.

**Q.** What about the IC50 [1, 10] of the same compound?
**A.** The IC50 was 0.0325 µM.

**Q.** And the “AUC (% Viable Cells)” value [1]?
**A.** The value was 19.94.

**Q.** What about the “AUC (Apoptosis)” value [1] of the same compound?
**A.** Its value is 920.7.

**Q.** What about the “Emax (% Viable Cells)” value [1] of the same compound?
**A.** Its value is 0.2469%.

**Q.** What about the “Ymax (Apoptosis)” value [1] of the same compound?
**A.** The value was 95.92%.

**Q.** What about the EC50 ([2]; Homo sapiens) of the same compound?
**A.** Its EC50 is 0.00205 µM.

**Q.** And the IC50 [2, 10]?
**A.** Its IC50 is 0.00578 µM.

**Q.** And the “AUC (% Viable Cells)” value [2]?
**A.** The value was 62.67.

**Q.** And the “AUC (Apoptosis)” value [2]?
**A.** Its value is 968.2.

**Q.** What about the “Emax (% Viable Cells)” value [2] of the same compound?
**A.** The value was 5.638%.

**Q.** What about the “Ymax (Apoptosis)” value [2] of the same compound?
**A.** The value was 97.04%.

**Q.** What about the “AUC (% Viable Cells)” value [3] of the same compound?
**A.** Its value is 941.4.

**Q.** And the “AUC (Apoptosis)” value [3]?
**A.** The value was 80.31.

**Q.** What about the “Emax (% Viable Cells)” value [3] of the same compound?
**A.** Its value is 89.46%.

**Q.** And the “Ymax (Apoptosis)” value [3]?
**A.** The value was 11.62%.

**Q.** What about the EC50 ([3]; Homo sapiens) of the same compound?
**A.** The EC50 was 0.0688 µM.

**Q.** What about the IC50 [3, 10] of the same compound?
**A.** The IC50 was 10 µM.

**Q.** What about the EC50 ([4]; Homo sapiens) of the same compound?
**A.** Its EC50 is 0.000263 µM.

**Q.** What about the IC50 [4, 10] of the same compound?
**A.** Its IC50 is no less than 10 µM.

**Q.** What about the “AUC (% Viable Cells)” value [4] of the same compound?
**A.** Its value is 965.1.

**Q.** What about the “AUC (Apoptosis)” value [4] of the same compound?
**A.** Its value is 24.63.

**Q.** And the “Emax (% Viable Cells)” value [4]?
**A.** The value was 85.63%.

**Q.** And the “Ymax (Apoptosis)” value [4]?
**A.** The value was 4.493%.

**Q.** What about the EC50 ([5]; Homo sapiens) of the same compound?
**A.** Its EC50 is 0.223 µM.

**Q.** And the IC50 [5, 10]?
**A.** The IC50 was 0.002 µM.

**Q.** What about the “AUC (% Viable Cells)” value [5] of the same compound?
**A.** The value was 112.3.

**Q.** What about the “AUC (Apoptosis)” value [5] of the same compound?
**A.** Its value is 231.4.

**Q.** And the “Emax (% Viable Cells)” value [5]?
**A.** Its value is 8.56%.

**Q.** And the “Ymax (Apoptosis)” value [5]?
**A.** The value was 27.5%.

**Q.** And the “AUC (% Viable Cells)” value [6]?
**A.** The value was 334.1.

**Q.** And the “AUC (Apoptosis)” value [6]?
**A.** Its value is 456.1.

**Q.** What about the EC50 [6] of the same compound?
**A.** Its EC50 is 3.29 µM.

**Q.** What about the “Emax (% Viable Cells)” value [6] of the same compound?
**A.** Its value is 7.609%.

**Q.** And the “Ymax (Apoptosis)” value [6]?
**A.** Its value is 77.39%.

**Q.** What about the IC50 [6, 11] of the same compound?
**A.** Its IC50 is 0.201 µM.

**Q.** What about the “AUC (% Viable Cells)” value [7] of the same compound?
**A.** Its value is 17.1.

**Q.** What about the “AUC (Apoptosis)” value [7] of the same compound?
**A.** The value was 916.9.

**Q.** What about the EC50 [7] of the same compound?
**A.** Its EC50 is 0.0897 µM.

**Q.** What about the “Emax (% Viable Cells)” value [7] of the same compound?
**A.** Its value is 0.03115%.

**Q.** And the “Ymax (Apoptosis)” value [7]?
**A.** The value was 99.43%.

**Q.** What about the IC50 [7, 11] of the same compound?
**A.** The IC50 was 0.00236 µM.

**Q.** What about the EC50 ([8]; Homo sapiens) of the same compound?
**A.** The EC50 was 0.782 µM.

**Q.** What about the IC50 [8, 10] of the same compound?
**A.** The IC50 was 0.278 µM.

**Q.** What about the “AUC (% Viable Cells)” value [8] of the same compound?
**A.** Its value is 296.2.

**Q.** And the “AUC (Apoptosis)” value [8]?
**A.** The value was 209.

**Q.** And the “Emax (% Viable Cells)” value [8]?
**A.** Its value is 23.44%.

**Q.** What about the “Ymax (Apoptosis)” value [8] of the same compound?
**A.** The value was 25.33%.

**Q.** What about the EC50 ([9]; Homo sapiens) of the same compound?
**A.** Its EC50 is 0.0136 µM.

**Q.** And the IC50 [9, 10]?
**A.** The IC50 was 0.0477 µM.

**Q.** What about the “AUC (% Viable Cells)” value [9] of the same compound?
**A.** The value was 313.5.

**Q.** What about the “AUC (Apoptosis)” value [9] of the same compound?
**A.** The value was 493.3.

**Q.** What about the “Emax (% Viable Cells)” value [9] of the same compound?
**A.** The value was 24.49%.

**Q.** And the “Ymax (Apoptosis)” value [9]?
**A.** Its value is 51.82%.
